Results as given in paper PMC12040169 (PLOS Biology, 2025).

Test: in vitro
Conditions: human, hela cells, % viability

Row | SMILES | viability at 28.5 h, 10 µM [%]
1 | O=C(c1ccc(F)cc1)C1CCN(Cc2cccnc2)CC1 [CBK149118] | 101
2 | Cc1cc(CN2CCC(C(=O)c3ccc(F)cc3)CC2)no1 [CBK149121] | 89.2
3 | O=C(c1ccc(F)cc1)C1CCN(Cc2ccc3ccccc3c2)CC1 [CBK149122] | 79.9
4 | O=C(c1ccc(F)cc1)C1CCN(C/C=C/c2ccccc2)CC1 [CBK149124] | 90.4
5 | O=C(c1ccc(F)cc1)C1CCN(CCc2c[nH]c3ccccc23)CC1 [CBK149125] | 96.3
6 | O=C(CN1CCC(C(=O)c2ccc(F)cc2)CC1)Nc1ncccn1 [CBK149131] | 95.7
7 | O=C(c1ccc(F)cc1)C1CCN(Cc2cc(=O)[nH]c(=O)[nH]2)CC1 [CBK149132] | 91.8
8 | O=C(c1ccc(F)cc1)C1CCN(CCC(c2ccccc2)c2ccccc2)CC1 [CBK149138] | 92.3
9 | Cc1nc(CN2CCC(C(=O)c3ccc(F)cc3)CC2)cs1 [CBK149147] | 103
10 | Cc1ccc(NC(=O)c2nc(-c3ccc(C(=O)N4CCOCC4)cc3)cnc2N)c(O)c1 [CBK149152] | 44.3
11 | Nc1ncc(-c2ccc(C(=O)N3CCOCC3)cc2)nc1C(=O)NC1CCCCC1 [CBK149160] | 89.3
12 | COc1cccc(NC(=O)N2CCC(n3c(=O)n(C(=O)Nc4cccc(OC)c4)c4ccccc43)CC2)c1 [CBK149177] | 94.8
13 | CCOc1ccc(OC(=O)c2ccc3c(c2)OCO3)cc1 [CBK149205] | 92.6
14 | CCOc1ccc(OC(=O)c2ccc(OC(F)(F)F)cc2)cc1 [CBK149207] | 95.8
15 | COC(=O)c1ccc(-c2ccc(F)cc2OC)nc1 [CBK149230] | 88.3
16 | COC(=O)c1ccc(-c2ccc(Cl)c(Cl)c2)nc1 [CBK149231] | 101
17 | CCOC(=O)c1cnn(C)c1-c1ccc(F)cc1OC [CBK149233] | 92.8
18 | CCOC(=O)c1cccnc1-c1cncnc1 [CBK149236] | 118
19 | CCOC(=O)c1cccnc1-c1cccc(C(N)=O)c1 [CBK149239] | 96
20 | CCOC(=O)c1cccnc1-c1ccc(Cl)c(Cl)c1 [CBK149241] | 92.1
21 | CCOC(=O)c1cccnc1-c1ccc(S(C)(=O)=O)cc1 [CBK149242] | 105
22 | CCOC(=O)c1cccc(-c2cc3ccccc3o2)n1 [CBK149243] | 114

Row | SMILES | viability at 28.5 h, 10 µM [%]
23 | CCOC(=O)c1cccc(-c2ccc(F)cc2F)n1 [CBK149245] | 101
24 | CCOC(=O)c1cccc(-c2ccc(OC(F)(F)F)cc2)n1 [CBK149251] | 96.6
25 | c1ccc(-c2nc(C3CC3)n3ccccc23)cc1 [CBK149257] | 94.1
26 | c1ccc(-c2nc(C3CCCC3)n3ccccc23)cc1 [CBK149260] | 93.3
27 | COc1cccc2sc(NC(=O)CCCN(C)C)nc12 [CBK149261] | 93
28 | COc1cccc2sc(NC(=O)c3ccc4occc4c3)nc12 [CBK149278] | 96.8
29 | COc1cccc2sc(NC(=O)CN3CCOCC3)nc12 [CBK149281] | 98.8
30 | COc1cccc2sc(NC(=O)c3c(F)cccc3F)nc12 [CBK149283] | 95.5
31 | COc1cccc2sc(NC(=O)Cc3ccccc3)nc12 [CBK149284] | 103
32 | CN(C)CCCC(=O)NCc1ccc(-c2csnn2)cc1 [CBK149288] | 91
33 | O=C(NCc1ccc(-c2csnn2)cc1)c1cccc(C(F)(F)F)c1 [CBK149293] | 87.2
34 | CSCCC(=O)NCc1ccc(-c2csnn2)cc1 [CBK149304] | 83.2
35 | COc1cc(C(=O)NCc2ccc(-c3csnn3)cc2)cc(OC)c1OC [CBK149308] | 87
36 | O=C(COc1cccnc1)NCc1ccc(-c2csnn2)cc1 [CBK149312] | 93.1
37 | COc1ccc2[nH]cc(CC(=O)NCc3ccc(-c4csnn4)cc3)c2c1 [CBK149313] | 82.7
38 | Cc1cc(C(=O)NCc2ccc(-c3csnn3)cc2)n[nH]1 [CBK149314] | 88.8
39 | CCN(CC)CCNC(=O)c1c(C)[nH]c(/C=C2\C(=O)Nc3ccc(F)cc32)c1C [CBK149343] | 50.7
40 | CS(=O)(=O)c1ccc(Cn2cc(CN3CCC(Sc4ccccn4)CC3)nn2)cc1 [CBK149475] | 98.4
41 | CC(=O)Nc1ccc(-n2cc(CN3CCC(Sc4ccccn4)CC3)nn2)cc1 [CBK149476] | 99.5
42 | CC(=O)Nc1ccc(-n2cc(COC3CCN(C(=O)OC(C)(C)C)CC3)nn2)cc1 [CBK149481] | 121
43 | CC(=O)Nc1ccc(-c2cccc(COC3CCN(C(=O)c4ccc(OC(C)C)cc4)CC3)c2)cc1 [CBK149485] | 100
44 | CC(=O)Nc1ccc(-c2cccc(COC3CCN(C(=O)Cc4ccc(Cl)c(Cl)c4)CC3)c2)cc1 [CBK149487] | 109

Row | SMILES | viability at 28.5 h, 10 µM [%]
45 | CC(=O)Nc1ccc(-c2cccc(COC3CCN(C(=O)Cc4c[nH]cn4)CC3)c2)cc1 [CBK149497] | 103
46 | CS(=O)(=O)c1ccc(-c2cccc(COC3CCN(C(=O)Cc4ccc(F)cc4F)CC3)c2)cc1 [CBK149506] | 87.8
47 | CS(=O)(=O)c1ccc(-c2cccc(COC3CCN(C(=O)Cc4cccc5ccccc45)CC3)c2)cc1 [CBK149510] | 90.6
48 | CS(=O)(=O)c1ccc(-c2cccc(COC3CCN(C(=O)Cc4ccc(C#N)cc4)CC3)c2)cc1 [CBK149513] | 96.3
49 | Cc1cc(CNC(=O)C2(c3ccccc3)CCCC2)no1 [CBK149518] | 103
50 | Cc1cc(Cl)ccc1CNC(=O)C1(c2ccccc2)CCCC1 [CBK149519] | 88.6
51 | O=C(NCc1ccc2occc2c1)C1(c2ccccc2)CCCC1 [CBK149525] | 116
52 | O=C(NCc1c(F)cccc1F)C1(c2ccccc2)CCCC1 [CBK149527] | 91.7
53 | CN(C)CC(C)(C)CNC(=O)C1(c2ccccc2)CCCC1 [CBK149532] | 107
54 | O=C(NCc1cccs1)C1(c2ccccc2)CCCC1 [CBK149533] | 103
55 | O=C(NC(c1ccccc1)c1ccccc1)C1(c2ccccc2)CCCC1 [CBK149536] | 96.8
56 | O=C(NCc1ccco1)C1(c2ccccc2)CCCC1 [CBK149539] | 96
57 | O=C(NCc1cccs1)c1ccccc1Nc1cccc(C(F)(F)F)c1 [CBK149557] | 104
58 | CS(=O)(=O)c1ccc(CNC(=O)c2ccccc2Nc2cccc(C(F)(F)F)c2)cc1 [CBK149580] | 92
59 | CC(C)c1ccc(/C=C/C(=O)NCc2cccs2)cc1 [CBK149587] | 100
60 | COc1ccc(OCCNC(=O)c2ccccc2-n2cccc2)cc1 [CBK149592] | 95.6
61 | CN(C)CC(C)(C)CNC(=O)c1ccccc1-n1cccc1 [CBK149600] | 92.3
62 | O=C(NCc1cccnc1)c1ccccc1-n1cccc1 [CBK149602] | 92.3
63 | O=C(NCC1CCCCC1)c1ccccc1-n1cccc1 [CBK149603] | 91.7
64 | O=C(c1ccccc1-n1cccc1)N1CCCC1 [CBK149608] | 81.6
65 | CCOC(=O)CCNC(=O)c1ccccc1-n1cccc1 [CBK149611] | 95.3
66 | Cc1cc(CNC(=O)/C=C/c2ccc(C(C)C)cc2)no1 [CBK149614] | 103
